System: eggs of Tetranychus cinnabarinus
Experiment: Control efficacy on eggs of Tetranychus cinnabarinus of compounds compounded with ginger rhizome / Kaempferia galanga L rhizome mixture (Bliss joint action)
Type: in vivo
Details: for joint effect on controlling of eggs of Tetranychus cinnabarinus (in words): compounded with a mixture of ginger rhizome and Kaempferia galanga L rhizome (7:3); for Control efficacy for eggs of Tetranychus cinnabarinus on day 5 (%): single agent
Method: The ginger rhizome extract and volatile oil of Kaempferia galanga L rhizome were used to prepare a mixture of ginger rhizome and Kaempferia galanga L rhizome at a compounding ratio of 7:3, which was then compounded with compound 1, compound 10 and compound 19, and a leaf-disc method was used to evaluate the control efficacy on eggs of Tetranychus cinnabarinus based on the Experimental method in Example 1.
The ginger rhizome extract was prepared by extracting the ginger rhizome using a mixed solvent of ethyl acetate and ethanol at a ratio of 1:4.
According to the concept of independent joint action proposed by Bliss, the theoretical mortality rate P when the pesticides and acaricides are used in mixture can be calculated using the following equation: […]
Pm is the mortality rate (%) of the target when the first active component is used at a concentration of m; and Pn is the mortality rate (%) of the target when the second active component is used at a concentration of n.

SMILES | joint effect on controlling of eggs of Tetranychus cinnabarinus (in words) | Control efficacy for eggs of Tetranychus cinnabarinus on day 5 (%) (0.1 mg/L) | Control efficacy for eggs of Tetranychus cinnabarinus on day 5 (%) (0.2 mg/L) | Control efficacy for eggs of Tetranychus cinnabarinus on day 5 (%) (0.3 mg/L) | Control efficacy for eggs of Tetranychus cinnabarinus on day 5 (%) (0.5 mg/L) | Control efficacy for eggs of Tetranychus cinnabarinus on day 5 (%) (0.25 mg/L)
CC(COS(=O)OCCF)Oc1ccc(Cl)cc1Cl (stereo not drawn) [Compound 1] | synergistic effect | 17.12 | 33.58 | 52.19 |  | 
CC(C)(COc1ccc(Cl)cc1Cl)OS(=O)OCCF (stereo not drawn) [Compound 10] | synergistic effect | 11.45 | 20.79 |  | 68.12 | 
CCC(COc1ccc(Cl)cc1Cl)OS(=O)OCCF (stereo not drawn) [Compound 19] | synergistic effect | 20.57 | 36.14 |  |  | 48.73
